Tests used:
[1] = tested on: BRAF mutant human cell line xenograft HT29; experiment: BRAF mutant human cell line xenograft HT29 in mice; assay type: in vivo; conditions: clinically relevant doses
[2] = tested on: six BRAFV600E CRC cell lines; experiment: growth inhibition (CellTiter-Glo, 7 days) in six BRAF-mutant CRC cell lines; assay type: cell-based; conditions: seven treatment days; dabrafenib 30 nM, Compound A 300 nM, compound B 1.1 μM
Protocol: Compound A: selective ATP-competitive ERK1 and ERK2 kinase inhibitor. Compound B: selective allosteric inhibitor of SHP2. The compounds were dissolved in 100% DMSO and stored at -20° C. as 10 mM stock solutions.
In this study, we used six BRAF-mutant colorectal cancer cell lines. We acquired all the cell lines from ATCC and cultured them at 37° C. 5% CO2 in the recommended media conditions: Colo205, LIM2405, SNUC5 and SW1417: RPMI 1640 (Amimed, #1-41F01-I) supplemented with 1% L-glutamine, 10 mM HEPES (Amimed, #5-31F00-H), 1% Na-pyruvate (Amimed, #5-60F00-H), 10% FCS. MDST8: DMEM high glucose (Amimed, #1-26F01-I) supplemented with 1% L-glutamine, 10% FCS. RKO: EMEM (Amimed, #1-31S01-1) supplemented with 1% L-glutamine, 10% FCS. […]
Seven days after treatment initiation, cell growth was determined using CellTiter-Glo® (Promega, #G7573), which measures the amount of ATP in the well. […] Cell lysis was induced for two minutes on an orbital shaker, the plates were incubated at room temperature for ten minutes, and luminescence was recorded.
To summarize the data of this study clearly, the percentage of growth inhibition versus DMSO (% GI) at single compound concentrations were reported. […] Raw data values were normalized to day 0, the time of treatment initiation, so that the % GI could be calculated. […]

| SMILES | anti-tumor response, T/C [1] | cell growth inhibition (% GI vs DMSO) [2] |
| --- | --- | --- |
| CNC[C@@H](NC(=O)c1ccc(-c2nc([C@H]3CC[C@H](O)[C@@H](F)C3)cnc2N)cc1F)c1cc(F)cc(Br)c1 [Compound A, 4-(3-amino-6-((1S,3 S,4S)-3-fluoro-4-hydroxycyclohexyl)pyrazin-2-yl)-N-((S)-1-(3-bromo-5-fluorophenyl)-2-(methylamino)ethyl)-2-fluorobenzamide] | 54 % T/C | – |
| C[C@@H]1OCC2(CCN(c3cnc(Sc4ccnc(N)c4Cl)c(N)n3)CC2)[C@@H]1N [Compound B, (3S,4S)-8-(6-amino-5-((2-amino-3-chloropyridin-4-yl)thio)pyrazin-2-yl)-3-methyl-2-oxa-8-azaspiro[4.5]decan-4-amine] | – | no effect |
| CC(C)(C)c1nc(-c2cccc(NS(=O)(=O)c3c(F)cccc3F)c2F)c(-c2ccnc(N)n2)s1 [Dabrafenib, N-(3-(5-(2-aminopyrimidin-4-yl)-2-(tert-butyl)thiazol-4-yl)-2-fluorophenyl)-2,6-difluorobenzenesulfonamide] | 59 % T/C | – |
| CC(=O)Nc1cccc(-n2c(=O)n(C3CC3)c(=O)c3c(Nc4ccc(I)cc4F)n(C)c(=O)c(C)c32)c1 [Trametinib] | 48 % T/C | – |
